According to patent US20240270695A1, “COMPOUNDS, COMPOSITIONS AND METHODS OF TREATING DISORDERS” (Chengdu Anticancer Bioscience LTD, priority 2021, published 2024):
Like-named read-outs stand apart in the source and are kept apart here.

Tested on: RPE-Neo or RPE-MYC or RPE-MYC expressing an EGFP-Histone 2B fusion protein
Assay: Phenotypic screening assay (arrest in mitosis, change in DNA content, cell death; GE IN-Cell Analyzer 2000)
Assay type: cell-based
Conditions: Homo sapiens, compounds 20 nM to 20 μM, 24, 48 or 72 hours
[1] = read-out: Min. Effective conc. for Polyploidy (≥10%)
[2] = min. effective conc., read-out: Mitotic Arrest (≥10%)
[3] = min. effective conc., read-out: Cell Death (>30%)

## COC(=O)C1=C(O)c2ccccc2N(Cc2ccccc2)C(=O)C1 [Example 1, Methyl 1-benzyl-5-hydroxy-2-oxo-2,3-dihydro-1H-benzo[b]azepine-4-carboxylate]
[1]
  minimal effective concentration: 30 to 1000 µM
[2]
  minimal effective concentration: 30 to 1000 µM

## COC(=O)C1=C(O)c2ccccc2N(Cc2cccc(C)c2)C(=O)C1 [Example 5, Methyl 5-hydroxy-1-(3-methylbenzyl)-2-oxo-2,3-dihydro-1H-benzo[b]azepine-4-carboxylate]
[1]
  minimal effective concentration: 30 to 1000 µM
[3]
  minimal effective concentration: 30 to 1000 µM
[2]
  minimal effective concentration: 30 to 1000 µM

## COC(=O)C1=C(O)c2ccccc2N(Cc2cc(C)cc(C)c2)C(=O)C1 [Example 6, Methyl 1-(3,5-dimethylbenzyl)-5-hydroxy-2-oxo-2,3-dihydro-1H-benzo[b]azepine-4-carboxylate]
[1]
  minimal effective concentration: 30 to 1000 µM
[3]
  minimal effective concentration: 30 to 1000 µM
[2]
  minimal effective concentration: 30 to 1000 µM

## COC(=O)C1=C(O)c2ccccc2N(Cc2ccc(C)cc2)C(=O)C1 [Example 7, Methyl 5-hydroxy-1-(4-methylbenzyl)-2-oxo-2,3-dihydro-1H-benzo[b]azepine-4-carboxylate]
[1]
  minimal effective concentration: 0.001 to 1 µM
[3]
  minimal effective concentration: 0.001 to 1 µM
[2]
  minimal effective concentration: 0.001 to 1 µM

## COC(=O)C1=C(O)c2ccccc2N(Cc2ccccc2F)C(=O)C1 [Example 9, Methyl 1-(2-fluorobenzyl)-5-hydroxy-2-oxo-2,3-dihydro-1H-benzo[b]azepine-4-carboxylate]
[1]
  minimal effective concentration: 30 to 1000 µM
[2]
  minimal effective concentration: 30 to 1000 µM

## COC(=O)C1=C(O)c2ccccc2N(Cc2ccc(F)cc2)C(=O)C1 [Example 10, Methyl 1-(4-fluorobenzyl)-5-hydroxy-2-oxo-2,3-dihydro-1H-benzo[b]azepine-4-carboxylate]
[1]
  minimal effective concentration: 30 to 1000 µM
[2]
  minimal effective concentration: 30 to 1000 µM

## COC(=O)C1=C(O)c2ccccc2N(Cc2cnc3ccccc3c2)C(=O)C1 [Example 12, Methyl 5-hydroxy-2-oxo-1-(quinolin-3-ylmethyl)-2,3-dihydro-1H-benzo[b]azepine-4-carboxylate]
[3]
  minimal effective concentration: 30 to 1000 µM

## COC(=O)C1=C(O)c2ccccc2N(Cc2ccc3ccccc3c2)C(=O)C1 [Example 14, Methyl 5-hydroxy-1-(naphthalen-2-ylmethyl)-2-oxo-2,3-dihydro-1H-benzo[b]azepine-4-carboxylate]
[1]
  minimal effective concentration: 1 to 10 µM
[3]
  minimal effective concentration: 1 to 10 µM
[2]
  minimal effective concentration: 1 to 10 µM

## COC(=O)C1=C(O)c2ccccc2N(Cc2c(C)cccc2C)C(=O)C1 [Example 16, Methyl 1-(2,6-dimethylbenzyl)-5-hydroxy-2-oxo-2,3-dihydro-1H-benzo[b]azepine-4-carboxylate]
[3]
  minimal effective concentration: 30 to 1000 µM

## COC(=O)C1=C(O)c2ccccc2N(Cc2cccc(C)c2C)C(=O)C1 [Example 17, Methyl 1-(2,3-dimethylbenzyl)-5-hydroxy-2-oxo-2,3-dihydro-1H-benzo[b]azepine-4-carboxylate]
[1]
  minimal effective concentration: 1 to 10 µM
[3]
  minimal effective concentration: 1 to 10 µM
[2]
  minimal effective concentration: 1 to 10 µM

## COC(=O)C1=C(O)c2ccccc2N(Cc2ccc(F)cc2F)C(=O)C1 [Example 18, Methyl 1-(2,4-difluorobenzyl)-5-hydroxy-2-oxo-2,3-dihydro-1H-benzo[b]azepine-4-carboxylate]
[1]
  minimal effective concentration: 30 to 1000 µM
[3]
  minimal effective concentration: 30 to 1000 µM
[2]
  minimal effective concentration: 30 to 1000 µM

## COC(=O)C1=C(O)c2ccccc2N(Cc2cc(F)ccc2F)C(=O)C1 [Example 19, Methyl 1-(2,5-difluorobenzyl)-5-hydroxy-2-oxo-2,3-dihydro-1H-benzo[b]azepine-4-carboxylate]
[1]
  minimal effective concentration: 30 to 1000 µM
[3]
  minimal effective concentration: 30 to 1000 µM
[2]
  minimal effective concentration: 30 to 1000 µM

## COC(=O)C1=C(O)c2ccccc2N(Cc2cc(F)cc(F)c2)C(=O)C1 [Example 20, Methyl 1-(3,5-difluorobenzyl)-5-hydroxy-2-oxo-2,3-dihydro-1H-benzo[b]azepine-4-carboxylate]
[1]
  minimal effective concentration: 30 to 1000 µM
[3]
  minimal effective concentration: 30 to 1000 µM
[2]
  minimal effective concentration: 30 to 1000 µM

## COC(=O)C1=C(O)c2ccccc2N(Cc2cccc(F)c2F)C(=O)C1 [Example 22, Methyl 1-(2,3-difluorobenzyl)-5-hydroxy-2-oxo-2,3-dihydro-1H-benzo[b]azepine-4-carboxylate]
[3]
  minimal effective concentration: 30 to 1000 µM

## COC(=O)C1=C(O)c2ccccc2N(Cc2cccc(OC)c2)C(=O)C1 [Example 27, Methyl 5-hydroxy-1-(3-methoxybenzyl)-2-oxo-2,3-dihydro-1H-benzo[b]azepine-4-carboxylate]
[1]
  minimal effective concentration: 10 to 30 µM
[2]
  minimal effective concentration: 10 to 30 µM

## COC(=O)C1=C(O)c2ccccc2N(Cc2cc(F)c(F)c(F)c2)C(=O)C1 [Example 28, Methyl 5-hydroxy-2-oxo-1-(3,4,5-trifluorobenzyl)-2,3-dihydro-1H-benzo[b]azepine-4-carboxylate]
[3]
  minimal effective concentration: 30 to 1000 µM

## COC(=O)C1=C(O)c2ccccc2N(Cc2ccc(C)cc2C)C(=O)C1 [Example 29, Methyl 1-(2,4-dimethylbenzyl)-5-hydroxy-2-oxo-2,3-dihydro-1H-benzo[b]azepine-4-carboxylate]
[1]
  minimal effective concentration: 1 to 10 µM
[3]
  minimal effective concentration: 1 to 10 µM
[2]
  minimal effective concentration: 1 to 10 µM

## COC(=O)C1=C(O)c2ccccc2N(Cc2ccc(C(C)C)cc2)C(=O)C1 [Example 30, Methyl 5-hydroxy-1-(4-isopropylbenzyl)-2-oxo-2,3-dihydro-1H-benzo[b]azepine-4-carboxylate]
[1]
  minimal effective concentration: 10 to 30 µM
[3]
  minimal effective concentration: 10 to 30 µM
[2]
  minimal effective concentration: 10 to 30 µM

## COC(=O)C1=C(O)c2ccccc2N(Cc2ccc(OC(F)F)cc2)C(=O)C1 [Example 33, Methyl 1-(4-(difluoromethoxy)benzyl)-5-hydroxy-2-oxo-2,3-dihydro-1H-benzo[b]azepine-4-carboxylate]
[1]
  minimal effective concentration: 1 to 10 µM
[3]
  minimal effective concentration: 1 to 10 µM
[2]
  minimal effective concentration: 1 to 10 µM

## COC(=O)C1=C(O)c2ccccc2N(Cc2ccc(OC)cc2)C(=O)C1 [Example 34, Methyl 5-hydroxy-1-(4-methoxybenzyl)-2-oxo-2,3-dihydro-1H-benzo[b]azepine-4-carboxylate]
[1]
  minimal effective concentration: 0.001 to 1 µM
[3]
  minimal effective concentration: 0.001 to 1 µM
[2]
  minimal effective concentration: 0.001 to 1 µM

## COC(=O)C1=C(O)c2ccccc2N(Cc2ccccc2C)C(=O)C1 [Example 35, Methyl 5-hydroxy-1-(2-methylbenzyl)-2-oxo-2,3-dihydro-1H-benzo[b]azepine-4-carboxylate]
[1]
  minimal effective concentration: 30 to 1000 µM
[3]
  minimal effective concentration: 30 to 1000 µM
[2]
  minimal effective concentration: 30 to 1000 µM

## COC(=O)C1=C(O)c2ccccc2N(Cc2ccc(C)c(C)c2)C(=O)C1 [Example 36, Methyl 1-(3,4-dimethylbenzyl)-5-hydroxy-2-oxo-2,3-dihydro-1H-benzo[b]azepine-4-carboxylate]
[1]
  minimal effective concentration: 10 to 30 µM
[3]
  minimal effective concentration: 10 to 30 µM
[2]
  minimal effective concentration: 10 to 30 µM

## CCc1ccc(CN2C(=O)CC(C(=O)OC)=C(O)c3ccccc32)cc1 [Example 37, Methyl 1-(4-ethylbenzyl)-5-hydroxy-2-oxo-2,3-dihydro-1H-benzo[b]azepine-4-carboxylate]
[1]
  minimal effective concentration: 0.001 to 1 µM
[3]
  minimal effective concentration: 0.001 to 1 µM
[2]
  minimal effective concentration: 0.001 to 1 µM
